According to ChEMBL document CHEMBL3580535, “The biological characteristics of a novel camptothecin-artesunate conjugate” (Bioorg Med Chem Lett, 2015):
Activity calls are given as the source filed them. The rule behind the calls is not given here.

What was measured:
MCF7 [1] = experiment: Cytotoxicity against human MCF7 cells assessed as inhibition of cell viability after 48 hrs by MTT assay; assay type: functional, cell-based
SMMC-7721 = experiment: Cytotoxicity against human SMMC7721 cells assessed as inhibition of cell viability after 48 hrs by MTT assay; assay type: functional, cell-based
Mus musculus [2] = experiment: Toxicity in mouse assessed as body weight loss at 0.43 mmol, ip; assay type: organism-based; settings: in vivo
Mus musculus [3] = experiment: Toxicity in mouse assessed as animal death at 0.43 mmol, ip; assay type: organism-based; settings: in vivo
Mus musculus [4] = experiment: Toxicity in BALB/c nude mouse assessed as body weight at 0.023 mmol/kg, ip administered every 2 days for 3 times measured on day 6 (reference value: 17.5 to 17.9 gms); assay type: organism-based; settings: in vivo
Mus musculus [5] = experiment: Toxicity in BALB/c nude mouse assessed as animal death at 0.023 mmol/kg, ip administered every 2 days for 3 times measured on day 6; assay type: organism-based; settings: in vivo, 48 h
MCF7 [6] = experiment: Antitumor activity against human MCF7 cells xenografted in BALB/c nude mouse assessed as decrease in tumor volume at 0.023 mmol/kg, ip administered every 2 days for 3 times measured after day 6; assay type: functional
[7] = target: Serotransferrin (Homo sapiens) (UniProt P02787); experiment: Binding affinity to transferrin (unknown origin) assessed as Stem-Volmer quenching constant at 310K by fluorescence spectroscopy
Sequence of Serotransferrin (Homo sapiens) (P02787 whole entry): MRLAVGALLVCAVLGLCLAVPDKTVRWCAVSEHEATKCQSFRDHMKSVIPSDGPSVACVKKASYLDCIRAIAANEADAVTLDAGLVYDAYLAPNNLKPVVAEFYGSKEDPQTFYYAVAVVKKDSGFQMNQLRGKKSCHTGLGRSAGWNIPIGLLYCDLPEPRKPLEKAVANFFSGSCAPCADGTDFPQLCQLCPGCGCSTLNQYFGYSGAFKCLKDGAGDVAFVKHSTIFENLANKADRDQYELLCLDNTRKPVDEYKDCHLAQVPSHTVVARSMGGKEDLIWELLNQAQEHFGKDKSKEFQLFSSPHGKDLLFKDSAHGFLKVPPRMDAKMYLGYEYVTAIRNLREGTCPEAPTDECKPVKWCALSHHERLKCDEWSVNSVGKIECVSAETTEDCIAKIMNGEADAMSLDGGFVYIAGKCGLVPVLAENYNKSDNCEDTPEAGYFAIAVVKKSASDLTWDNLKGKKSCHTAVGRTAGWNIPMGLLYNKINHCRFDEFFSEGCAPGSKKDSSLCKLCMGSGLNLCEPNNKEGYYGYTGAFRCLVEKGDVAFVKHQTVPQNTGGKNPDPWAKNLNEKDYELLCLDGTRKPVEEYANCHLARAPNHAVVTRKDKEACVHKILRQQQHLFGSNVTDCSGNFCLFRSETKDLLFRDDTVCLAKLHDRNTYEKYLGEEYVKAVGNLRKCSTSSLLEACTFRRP

[8] = target: Serotransferrin (Homo sapiens) (UniProt P02787); experiment: Binding affinity to transferrin (unknown origin) assessed as Stem-Volmer quenching constant at 298K by fluorescence spectroscopy
Albumin [9] = target: T1, Albumin (Bos taurus, UniProt P02769); experiment: Binding affinity to bovine serum albumin assessed as Stem-Volmer quenching constant at 310K by fluorescence spectroscopy; assay type: ADME; settings: cattle, isolated protein
T1 sequence (P02769 whole entry): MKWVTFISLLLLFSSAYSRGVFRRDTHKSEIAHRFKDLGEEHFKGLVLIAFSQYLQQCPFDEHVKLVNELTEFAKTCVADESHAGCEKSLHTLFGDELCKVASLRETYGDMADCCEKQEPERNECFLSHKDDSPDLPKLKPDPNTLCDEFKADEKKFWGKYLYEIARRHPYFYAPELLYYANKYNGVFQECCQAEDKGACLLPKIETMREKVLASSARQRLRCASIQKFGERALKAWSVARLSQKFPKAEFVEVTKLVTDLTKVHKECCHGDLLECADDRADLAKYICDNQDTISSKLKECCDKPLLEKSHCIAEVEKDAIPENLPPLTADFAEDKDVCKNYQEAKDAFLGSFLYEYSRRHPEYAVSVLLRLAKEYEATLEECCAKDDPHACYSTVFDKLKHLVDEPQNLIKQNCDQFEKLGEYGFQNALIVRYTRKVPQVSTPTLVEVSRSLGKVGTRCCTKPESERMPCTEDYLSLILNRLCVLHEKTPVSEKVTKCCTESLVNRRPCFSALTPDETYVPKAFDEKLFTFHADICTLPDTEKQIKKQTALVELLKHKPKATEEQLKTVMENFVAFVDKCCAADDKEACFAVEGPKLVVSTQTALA

Albumin [10] = target: T1, Albumin; experiment: Binding affinity to bovine serum albumin assessed as Stem-Volmer quenching constant at 298K by fluorescence spectroscopy; assay type: ADME; settings: cattle, isolated protein
Albumin [11] = target: T1, Albumin; experiment: Binding affinity to bovine serum albumin assessed as quenching constant at 310K by fluorescence spectroscopy; assay type: ADME; settings: cattle, isolated protein
Albumin [12] = target: T1, Albumin; experiment: Binding affinity to bovine serum albumin assessed as quenching constant at 298K by fluorescence spectroscopy; assay type: ADME; settings: cattle, isolated protein
[13] = target: Serotransferrin (Homo sapiens) (UniProt P02787); experiment: Effect on transferrin (unknown origin) conformation at 4 to 20 uM by synchronous fluorescence spectroscopy
[14] = Half life in PBS solution at pH 7.4; assay type: ADME
[15] = Half life in mouse plasma; assay type: ADME, cell-free
Mus musculus [16] = experiment: Toxicity in mouse assessed as body weight loss at 1.72 mmol, ip; assay type: organism-based; settings: in vivo
Mus musculus [17] = experiment: Toxicity in mouse assessed as animal death at 0.43 to 1.72 mmol, ip; assay type: organism-based; settings: in vivo

Compound	inhibition (MCF7 [1])	inhibition (SMMC-7721)	Activity (Mus musculus [2])	Activity (Mus musculus [3])	Activity (Mus musculus [4])	Activity (Mus musculus [5])	inhibition in vivo at 23 µmol/kg (MCF7 [6])	KSV [7]	KSV [8]	KSV (Albumin [9])	KSV (Albumin [10])	Kq (Albumin [11])	Kq (Albumin [12])	Activity [13]	half-life [14]	half-life [15]	Activity (Mus musculus [16])	Activity (Mus musculus [17])
CC[C@@]1(O)C(=O)OCc2c1cc1n(c2=O)Cc2cc3ccccc3nc2-1 [CAMPTOTHECIN]	Active	Active	Toxic	Toxic	11.3 g	Toxic	45.3%	2.62 ×10⁴ L/mol	4.35 ×10⁴ L/mol	3.345 ×10⁴ L/mol	3.626 ×10⁴ L/mol	3.345 ×10¹² L/mol/s	3.626 ×10¹² L/mol/s	inactive				
C[C@H]1[C@H](OC(=O)CCC(=O)O)O[C@@H]2O[C@@]3(C)CC[C@H]4[C@H](C)CC[C@@H]1[C@@]24OO3 [ARTESUNATE]	Active	Active	Toxic		16.1 g	Non-toxic												
CC[C@@]1(OC(=O)CCC(=O)O[C@@H]2O[C@@H]3O[C@@]4(C)CC[C@H]5[C@H](C)CC[C@@H]([C@H]2C)[C@@]35OO4)C(=O)OCc2c1cc1n(c2=O)Cc2cc3c(CN(C)C)c(O)ccc3nc2-1	Dose-dependent effect	Dose-dependent effect			15.5 g	Non-toxic	50.2%	2.22 ×10⁴ L/mol	2.36 ×10⁴ L/mol	1.03 ×10⁴ L/mol	2.27 ×10⁴ L/mol	1.03 ×10¹² L/mol/s	2.27 ×10¹² L/mol/s	inactive	15 h	4 h	Toxic	Non-toxic
CC[C@@]1(O)C(=O)OCc2c1cc1n(c2=O)Cc2cc3c(CN(C)C)c(O)ccc3nc2-1 [TOPOTECAN]					13.6 g	Toxic	70.2%											
